Values after ≈ are worked out from the molar mass of the structure shown.
Key:
A431 = assay: Inhibition of Cancer Cell Growth as Measured by Cell Number (Sulforhodamine B); type: cell-based, Human; settings: Homo sapiens, A-431, 48 h, 48 hours exposure
Method: (§1) Human tumor cell lines were plated in 96-well plates (250 µl/well, 1-6 x 10^4 cells/ml) in RPMI 1640 medium, containing 5% FBS (Fetal Bovine Serum). […] After 48 hours exposure to test compounds, cells were fixed with trichloroacetic acid, and stained with Sulforhodamine B. After washing with trichloroacetic acid, bound dye was solubilized in 10 mM Tris base and optical density was determined using plate reader. Under conditions of the assay the optical density is proportional to the number of cells in the well. […] The test procedure is described in details by Philip Skehan et. al, J.Natl. Canc. Inst., 82, 1107-1112 (1990). […] Information about some of the cell lines used in these test procedures is available from the American Type Tissue Collection: Cell Lines and Hybridomas, 1994 Reference Guide, 8th Edition.

SK-BR3 = assay: as above; type: cell-based, Human; settings: Homo sapiens, SK-BR-3, 48 h, 48 hours exposure
Method: as §1

MDA-MB-435 = assay: as above; type: cell-based, Human; settings: Homo sapiens, MDA-MB-435, 48 h, 48 hours exposure
Method: as §1

SW620 = assay: as above; type: cell-based, Human; settings: Homo sapiens, SW-620, 48 h, 48 hours exposure
Method: as §1

[1] = test system: Human Colon Carcinoma SW620; assay: In Vivo Inhibition of the Growth of Human Colon Carcinoma SW620 in mice; settings: for S/T = No. Survivors/No. Treated on Day +21 post tumor staging / %T/C Day 7 / %T/C Day 14 / Relative Tumor Growth Day 14 / %T/C Day 21 / Relative Tumor Growth Day 21 / Relative Tumor Growth Day 7: days 1 through 20; for tumor growth was inhibited by: 30 mg/kg i.p. during days 1-20
Method: A unit of 7 X 10^6 cells were injected SC into mice. […] Control animals received vehicle only. Tumor mass was determined every 7 days [(length X width^2)/2] for 28 days post staging.

DDP = assay: Inhibition of Cancer Cell Growth as Measured by Cell Number (Sulforhodamine B); type: cell-based; settings: Homo sapiens; 48 hours exposure
Method: as §1

A2780 = assay: as above; type: cell-based; settings: Homo sapiens, 48 hours exposure
Method: as §1

[2] = target: T1, Kinase insert Domain containing Receptor (KDR: the catalytic domain of the VEGF receptor) (Homo sapiens, UniProt P35968); assay: Inhibition of Kinase insert Domain containing Receptor (KDR), radioactive phosphorylation of Glu:Tyr copolymer; type: biochemical; settings: IC50, substrate phosphorylation
T1 construct: KDR: the catalytic domain of the VEGF receptor
Outline: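 Radiometric read-out: acid-precipitable 32P/33P from labelled ATP on an E:Y 4:1 copolymer, ATP added to start. KDR catalytic domain was incubated with compound, Mg++ and vanadate phosphatase blocker, buffered at pH 7.2; compounds may have several replicate entries.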

[3] = target: Epithelial Cell Kinase (ECK) (Homo sapiens, UniProt P29317); assay: Inhibition of Epithelial Cell Kinase (ECK), immobilized biotinylated peptide, HRP anti-phosphotyrosine readout; type: biochemical; settings: IC50, substrate phosphorylation
Outline: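 Biotinylated peptide substrate immobilized on neutravidin plates, reacted with ECK, test drug, Mg++ and sodium vanadate at pH 7.2; ATP added to start phosphorylation. After washing, phosphopeptide detected with HRP-conjugated anti-phosphotyrosine antibody, HRP activity reflecting substrate phosphorylation. Repeat entries are separate tests of the same compound.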

3T3/c-erbb2 = assay: Inhibition of Cancer Cell Growth as Measured by Cell Number (Sulforhodamine B); type: cell-based; settings: 48 hours exposure
Method: as §1

3T3 = assay: as above; type: cell-based; settings: Mus musculus, NIH3T3; 48 hours exposure
Method: as §1

[4] = target: T2, epidermal growth factor receptor kinase (EGF-R Kinase, recombinant enzyme; His-tagged cytoplasmic domain of EGFR) (Homo sapiens, UniProt P00533); assay: Inhibition of Epidermal Growth Factor Receptor Kinase (EGF-R) using recombinant enzyme, RR-SRC peptide phosphorylation, 33P-ATP; type: biochemical
T2 construct: EGFR cDNA encoding amino acids 645 - 1186 preceded by Met-Ala-(His)6; Met-Ala-(His)6 (N); made in house; host or cells: Sf9 insect cells, recombinant baculovirus vHcEGFR52
Outline: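 His-tagged EGFR cytoplasmic domain (aa 645–1186, baculovirus/Sf9) preincubated with compound 10 min on ice, then RR-SRC peptide (80 µM final) and γ-33P-ATP added. Reaction run 90 min at room temperature; peptide-bound 33P counted on P81 filters, background-corrected. IC50 from dose-response of ≥3 concentrations.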

T1 sequence (P35968 834-1162 limits assumed): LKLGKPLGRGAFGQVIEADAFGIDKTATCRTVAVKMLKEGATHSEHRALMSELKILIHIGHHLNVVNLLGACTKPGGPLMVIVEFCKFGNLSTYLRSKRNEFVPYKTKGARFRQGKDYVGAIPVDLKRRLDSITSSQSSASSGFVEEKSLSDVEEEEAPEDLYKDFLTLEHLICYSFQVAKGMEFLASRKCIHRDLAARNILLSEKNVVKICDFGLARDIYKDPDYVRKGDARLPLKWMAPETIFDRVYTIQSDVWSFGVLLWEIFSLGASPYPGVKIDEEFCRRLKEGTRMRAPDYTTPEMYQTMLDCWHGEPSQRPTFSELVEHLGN
T2 sequence (P00533 669-1210): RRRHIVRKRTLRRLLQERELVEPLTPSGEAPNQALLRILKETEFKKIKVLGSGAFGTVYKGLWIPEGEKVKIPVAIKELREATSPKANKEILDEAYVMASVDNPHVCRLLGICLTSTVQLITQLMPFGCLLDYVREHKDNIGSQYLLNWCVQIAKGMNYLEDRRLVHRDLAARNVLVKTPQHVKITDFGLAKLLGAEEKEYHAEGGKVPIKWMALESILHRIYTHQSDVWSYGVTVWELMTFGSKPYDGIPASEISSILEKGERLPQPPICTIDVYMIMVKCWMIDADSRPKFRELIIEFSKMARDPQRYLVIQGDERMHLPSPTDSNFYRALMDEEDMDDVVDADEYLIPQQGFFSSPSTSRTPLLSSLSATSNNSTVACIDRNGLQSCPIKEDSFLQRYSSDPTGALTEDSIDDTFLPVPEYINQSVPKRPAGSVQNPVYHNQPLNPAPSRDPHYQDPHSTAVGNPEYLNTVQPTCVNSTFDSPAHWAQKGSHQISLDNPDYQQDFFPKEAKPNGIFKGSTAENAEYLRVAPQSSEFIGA
Chain of Epithelial Cell Kinase (ECK) (P29317 24-976, species assumed): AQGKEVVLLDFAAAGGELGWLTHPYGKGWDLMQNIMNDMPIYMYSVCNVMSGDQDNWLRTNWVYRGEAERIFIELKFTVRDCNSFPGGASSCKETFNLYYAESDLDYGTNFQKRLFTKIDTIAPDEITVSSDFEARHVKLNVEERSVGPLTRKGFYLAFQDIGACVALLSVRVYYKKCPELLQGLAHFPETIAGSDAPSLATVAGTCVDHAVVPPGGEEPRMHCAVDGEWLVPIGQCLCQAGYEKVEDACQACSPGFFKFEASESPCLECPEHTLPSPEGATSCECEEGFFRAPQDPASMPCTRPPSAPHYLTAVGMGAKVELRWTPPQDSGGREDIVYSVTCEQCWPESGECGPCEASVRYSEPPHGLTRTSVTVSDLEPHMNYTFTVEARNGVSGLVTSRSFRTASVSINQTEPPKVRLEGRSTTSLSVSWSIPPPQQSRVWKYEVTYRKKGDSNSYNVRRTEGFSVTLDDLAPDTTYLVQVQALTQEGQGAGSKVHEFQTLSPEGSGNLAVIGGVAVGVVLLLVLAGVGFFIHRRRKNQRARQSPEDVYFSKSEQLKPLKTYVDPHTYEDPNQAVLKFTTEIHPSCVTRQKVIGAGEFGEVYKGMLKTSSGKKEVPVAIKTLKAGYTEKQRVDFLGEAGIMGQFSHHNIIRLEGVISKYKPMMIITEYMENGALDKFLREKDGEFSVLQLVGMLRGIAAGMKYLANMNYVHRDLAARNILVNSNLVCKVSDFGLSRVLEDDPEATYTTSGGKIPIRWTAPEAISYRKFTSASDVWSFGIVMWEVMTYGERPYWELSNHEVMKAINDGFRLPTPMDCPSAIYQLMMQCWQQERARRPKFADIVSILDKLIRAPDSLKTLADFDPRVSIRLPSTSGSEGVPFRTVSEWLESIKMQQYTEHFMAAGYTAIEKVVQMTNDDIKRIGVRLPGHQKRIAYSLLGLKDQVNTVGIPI

Work on `CCOc1cc2ncc(C#N)c(Nc3ccc4cn[nH]c4c3)c2cc1OCC` [Example 99, 6,7-Diethoxy-4-(1H-indazol-6-ylamino)-quinoline-3-carbonitrile] yielded an IC50 (A431) of 0.025 µg/mL (≈ 0.0669 µM), an IC50 (SK-BR3) of 0.016 µg/mL (≈ 0.0428 µM) and an IC50 (MDA-MB-435) of 0.02 µg/mL (≈ 0.0536 µM). For the same molecule, the IC50 (SW620) was 0.033 µg/mL (≈ 0.0884 µM), the “S/T = No. Survivors/No. Treated on Day +21 post tumor staging” value (shortened to “S/T = No. Survivors/No. Treated”) ([1]; 3 mg/kg/dose IP) was 5/5 and the “%T/C Day 7” value ([1]; 3 mg/kg/dose IP) was 93%. The “%T/C Day 14” value ([1]; 3 mg/kg/dose IP) was 108%, the “Relative Tumor Growth Day 14” value ([1]; 3 mg/kg/dose IP) was 12.53 and the “%T/C Day 21” value ([1]; 3 mg/kg/dose IP) was 147%. For the same molecule, the “Relative Tumor Growth Day 21” value ([1]; 3 mg/kg/dose IP) was 16.47, the “S/T = No. Survivors/No. Treated” value ([1]; 10 mg/kg/dose IP) was 5/5 and the “%T/C Day 7” value ([1]; 10 mg/kg/dose IP) was 90%. For the same molecule, the “Relative Tumor Growth Day 7” value ([1]; 10 mg/kg/dose IP) was 3.69, the “%T/C Day 14” value ([1]; 10 mg/kg/dose IP) was 68% and the “Relative Tumor Growth Day 14” value ([1]; 10 mg/kg/dose IP) was 7.88. For the same molecule, the “%T/C Day 21” value ([1]; 10 mg/kg/dose IP) was 87%, the “Relative Tumor Growth Day 21” value ([1]; 10 mg/kg/dose IP) was 9.75 and the “tumor growth was inhibited by” value ([1]; day 7) was 56%. For the same molecule, the “tumor growth was inhibited by” value ([1]; day 14) was 67%, the “tumor growth was inhibited by” value ([1]; day 21) was 60% and the “S/T = No. Survivors/No. Treated” value ([1]; 30 mg/kg/dose IP) was 4/5. The “%T/C Day 7” value ([1]; 30 mg/kg/dose IP) was 44%, the “Relative Tumor Growth Day 7” value ([1]; 30 mg/kg/dose IP) was 1.81 and the “%T/C Day 14” value ([1]; 30 mg/kg/dose IP) was 33%. The “Relative Tumor Growth Day 14” value ([1]; 30 mg/kg/dose IP) was 3.85, the “%T/C Day 21” value ([1]; 30 mg/kg/dose IP) was 40% and the “Relative Tumor Growth Day 21” value ([1]; 30 mg/kg/dose IP) was 4.44. The IC50 (DDP) was 0.036 µg/mL (≈ 0.0964 µM), the IC50 (A2780) was 0.032 µg/mL (≈ 0.0857 µM) and the IC50 [2] was 21.4 µM.
`CCOc1cc2ncc(C#N)c(Nc3ccc4cc[nH]c4c3)c2cc1OCC` [Example 101, 6,7-Diethoxy-4-(1H-indol-6-ylamino)-quinoline-3-carbonitrile] gave an IC50 [3] of over 53.7 µM, an IC50 (A431) of 0.216 µg/mL (≈ 0.58 µM) and an IC50 (SW620) of 0.326 µg/mL (≈ 0.875 µM). The IC50 (DDP) was 0.313 µg/mL (≈ 0.84 µM), the IC50 (A2780) was 0.231 µg/mL (≈ 0.62 µM) and the IC50 (3T3/c-erbb2) was 0.933 µg/mL (≈ 2.51 µM). For the same molecule, the IC50 (3T3) was 1.53 µg/mL (≈ 4.11 µM), the inhibition at 0.5 µM ([4]; read-out: %Inh @ 0.5 µM) was 27% and the IC50 ([4]; recombinant enzyme, 90 min at room temperature) was over 1 µM. For the same molecule, the IC50 [2] was 5.37 µM.

From patent EP1117659B1, “SUBSTITUTED 3-CYANOQUINOLINES AS PROTEIN TYROSINE KINASES INHIBITORS” (Wyeth Holdings Corporation, priority 1998, dated 2000)
